From patent US8703698B2, “Compositions and methods for treating atherosclerosis” (The University of Chicago, priority 2003, dated 2014)

Columns and labels:
[1] = tested on: NR8383 cells; experiment: Cholesterol export from rat NR8383 macrophages; type: cell-based; settings: peptide/lipid mixture by microfluidizer
Method: In these experiments, mouse J774 cells, human THP-1 cells and rat NR8383 cells were loaded with red blood cell membranes containing ^3H-cholesterol in accordance with procedures outlined in Example 4. The peptides were prepared as lipid mixtures using a microfluidizer procedure. Briefly, 3 mg of the 20-mer synthetic peptide (SEQ ID NO:30) or the 19-mer synthetic peptide (SEQ ID NO:12) was mixed with 5 ml cyclohexane and sonicated (output power of 14 watts) for 20-seconds followed by a 10-second interval. Separately, 2-oleyl-1-palmitoyl-sn-glycero-3-phosphocholine (Sigma-Aldrich P3017; 67.8 mg) and cholesterol (9.66 mg) were dissolved in 2 ml of chloroform, vortexed and transferred to a 500 ml round bottom flask. The two mixtures (i.e. cyclohexane/peptide and phosphatidylcholine/cholesterol solutions) were then combined. The combined solution was dried using nitrogen gas while swirling the flask, resulting in a thin layer of lipid at the bottom half of the flask. In order to ensure that the thin layer of lipid residue was completely dry, nitrogen gas was streamed over the lipid layer for an additional 10 minutes. […] Efficacy of the peptides was determined as the amount ^3H-cholesterol exported into the media after 24 hours. […]

[2] = tested on: [3H]-cholesterol-loaded J774 macrophages; experiment: In vivo cholesterol efflux to plasma in mice injected with [3H]-cholesterol-loaded J774 macrophages; settings: for 3H-cholesterol export into the plasma, dose response (FIGS. 17 and 18): liposome formulated, intravenous, 2, 4, 8, 16 or 32 μg/100 μl per mouse, 6 to 48 hours; for radiolabeled cholesterol exported in the plasma (FIG. 15): non-liposome formulated, in 100 μl PBS, intravenous, 15 μg/mouse peptide or 75 μg/mouse full length protein
Method: In these experiments, in vivo cholesterol export was determined in mice injected with J774 macrophages cholesterol-loaded with RBC membranes and [^3H]-cholesterol. Two hundred thousand macrophages in 100:1 PBS were injected into each mouse through the tail vein. At various time points thereafter, approximately 25:1 of blood were collected from the tail vein of each animal into heparinized capillary tubes. The tubes were then centrifuged for 5 minutes in an Adams Autocrit Centrifuge to separate red blood cells from plasma. Cholesterol efflux was determined by measuring the appearance of [^3H]-cholesterol in plasma by scintillation spectrometry. To study whether export of cholesterol from J774 cells to plasma was influenced by non-liposome formulated D-27mer peptide (SEQ ID NO:10), 24 hours after injection of cholesterol-loaded J774 macrophages into mice, the same animals received, by intravenous injection, 30 μg, 60 μg, 150 μg, 225 μg, 300 μg or 600 μg of D-27mer. All these amounts of D-peptides were dissolved in 100:l of phosphate buffered saline and injected through the tail vein of each animal.
Additional in vivo studies have also been conducted wherein mice were first injected intravenously with [^3H]cholesterol-laden macrophages and then injected 24 hours later with liposomes containing 0.5 μM of synthetic peptides corresponding to amino acid residues 1-20, 21-50, 51-80 or 74-103 of murine SAA2.1. Results from this study are depicted in FIG. 1. At time points indicated in the graph of FIG. 1, approximately 25 μl of blood were collected from the tail vein of each animal. The blood samples were centrifuged to separate the red blood cells from the plasma and the [^3H]-cholesterol in plasma was determined by scintillation counting. Results are mean±SEM of four determinations.
To determine cholesterol export in vivo, J774 macrophages were cholesterol-loaded with red blood cell membranes and [^3H]-cholesterol as described above. Cells were washed four times with PBS/BSA and then detached from the culture dishes. Five million cells in 200 μl DMEM were injected into control mice or inflamed mice through the tail vein. At various time points, approximately 25 μl of blood were collected from the tail vein of each animal into heparinized capillary tubes and then centrifuged for 5 minutes in an Adams Autocrit Centrifuge to separate red blood cells from plasma. Cholesterol efflux was determined by measuring the appearance of [^3H]-cholesterol in plasma by scintillation spectrometry.
J774 cells cultured in 6-well plates were enriched with cholesterol by incubating with red blood cell (RBC) membrane fragments (175:g as cholesterol) that had been previously labeled with 0.5:Ci/ml [^3H]-cholesterol at 37° C. for 24 hours in 0.2% bovine serum albumin (BSA). After loading with the labelled RBC membrane for 6 hours, cells were then washed with phosphate-buffered saline/BSA (PBS/BSA) three times followed by an 18 hour equilibration period during which monolayers were exposed to DMEM/BSA. To determine cholesterol export in vivo, J774 macrophages were cholesterol-loaded with RBC membranes and [^3H]-cholesterol as described previously above. Cells were washed four times with PBS/BSA and then detached from the culture dishes. Two hundred thousand cells in 100:l PBS were injected into mice through the tail vein. At various time points thereafter, approximately 25:l of blood were collected from the tail vein of each animal into heparinized capillary tubes. These tubes were then centrifuged for 5 minutes in an Adams Autocrit Centrifuge to separate red blood cells from plasma. Cholesterol efflux was determined by measuring the appearance of [^3H]-cholesterol in plasma by scintillation spectrometry. […]

[3] = tested on: J774 macrophages; experiment: [3H]cholesterol efflux from cholesterol-loaded J774 macrophages in tissue culture; type: cell-based, mouse; settings: for 3H-cholesterol exported into the media after 24 hours (FIG. 19): peptide/lipid mixture by microfluidizer
[4] = tested on: THP-1 cells; experiment: Cholesterol efflux from cholesterol-laden human THP-1 cells; type: cell-based; settings: for 3H-cholesterol exported into the media after 24 hours (FIG. 19): peptide/lipid mixture by microfluidizer, human THP-1 cells
[5] = molecular target: macrophage cholesterol ester hydrolase (murine)
[6] = molecular target: macrophage acyl CoA:cholesterol acyl transferase (murine)
[7] = molecular target: T1, acyl CoA:cholesterol acyl transferase (Mus musculus, UniProt Q61263); settings: intact murine macrophages and post-nuclear homogenates; Ely et al. 2001; cited from earlier work
T1 construct: The relative activity of acyl CoA:cholesterol acyl transferase was determined in cholesterol-laden cells; host or cells: J774 mouse macrophages, cholesterol-loaded
T1 sequence (Q61263 1-540): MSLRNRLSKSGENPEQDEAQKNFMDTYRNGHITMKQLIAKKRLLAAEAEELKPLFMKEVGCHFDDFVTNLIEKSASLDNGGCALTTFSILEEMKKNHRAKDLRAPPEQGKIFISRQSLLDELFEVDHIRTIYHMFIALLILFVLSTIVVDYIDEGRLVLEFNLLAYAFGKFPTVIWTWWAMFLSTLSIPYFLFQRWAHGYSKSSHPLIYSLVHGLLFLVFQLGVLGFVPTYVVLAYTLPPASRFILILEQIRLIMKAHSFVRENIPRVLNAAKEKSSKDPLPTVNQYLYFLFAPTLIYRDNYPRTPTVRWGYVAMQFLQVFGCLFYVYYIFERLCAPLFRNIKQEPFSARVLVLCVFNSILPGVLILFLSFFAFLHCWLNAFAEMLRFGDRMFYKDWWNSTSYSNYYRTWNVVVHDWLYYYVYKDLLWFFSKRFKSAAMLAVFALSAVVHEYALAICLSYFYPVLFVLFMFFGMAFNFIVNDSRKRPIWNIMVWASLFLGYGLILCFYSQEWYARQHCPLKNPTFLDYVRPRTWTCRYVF

[8] = tested on: hepatic, macrophage, and pancreatic cholesterol esterase; settings: Lindhorst 1997; Ely 2001; Tam 2002; cited from earlier work

With “ADQAANEWGRSGKDPNHFR [SEQ ID NO:12, consensus 19-mer, residues 78-96 of human SAA1.1]” the “3H-cholesterol exported into the media after 24 hours (FIG. 19)” value (“3H-cholesterol exported into the media” for short) [1] was “equally effective in inducing cholesterol export”, the “3H-cholesterol export into the plasma, dose response (FIGS. 17 and 18)” value [2] was “increased efficacy as the dose increased” and the “radiolabeled cholesterol exported in the plasma (FIG. 15)” value [2] was “no effect on cholesterol efflux”. For the same molecule, the “cholesterol export enhancing activity, time course (FIG. 9)” value ([3]; liposomal formulations, mouse J774 cells) was “greatest cholesterol export enhancing activity”, the “increase of cholesterol efflux with dose compared to mouse peptide SEQ ID NO:4 (FIGS. 5A and 5B)” value ([3]; liposomes, 0.05 to 5.0 μM, macrophages) was “at least as effective if not more effective” and the “3H-cholesterol exported into the media” value ([3]; mouse J774 cells) was “equally effective in inducing cholesterol export”. The “cholesterol efflux, time course at various concentrations (FIG. 6)” value ([4]; liposomal formulations, 0.05 to 5.0 μM) was “continued to increase over a time period from 0 to 24 hours” and the “3H-cholesterol exported into the media” value [4] was “equally effective in inducing cholesterol export”.

With “RSFFSFLGEAFDGARDMWRA [SEQ ID NO:30, 20-mer, residues 1-20 of human SAA1.1 or SAA2.1]” the “3H-cholesterol exported into the media” value [1] was “equally effective in inducing cholesterol export”, the “3H-cholesterol export into the plasma, dose response (FIGS. 17 and 18)” value [2] was “increased efficacy as the dose increased” and the “radiolabeled cholesterol exported in the plasma (FIG. 15)” value [2] was “no effect on cholesterol efflux”. For the same molecule, the “3H-cholesterol exported into the media” value ([3]; mouse J774 cells) was “equally effective in inducing cholesterol export” and the “3H-cholesterol exported into the media” value [4] was “equally effective in inducing cholesterol export”.

Work on DTIADQEANRHGRSGKDPNYYRPPGLPDKY [synthetic peptide corresponding to amino acid residues 74-103 of murine SAA2.1] yielded a rate of hydrolysis of [14C]-labeled cholesteryl oleate in J774 cells, re-esterification blocked with Sandoz 58-035 (fold increase) [5] of 3.

In the case of GFFSFVHEAFQGAGDMWRAY [synthetic peptide corresponding to amino acid residues 1-20 of murine SAA2.1], the acyl CoA:cholesterol acyl transferase activity (incorporation of [14C]oleate into cholesteryl ester), cholesterol-laden murine cells, liposomes with 0.5 µM peptide, 6 hour incubation (fold decrease) [6] is reported as 2.

B1: KEANWKNSDKYFHARGNYDAAQRGPGGVWAAEKISDGREAFQEFFGRGHEDTIADQEAN RHGRSGKDPNYYRPPGLPDKY (protein)
chain: KEANWKNSDKYFHARGNYDAAQRGPGGVWAAEKISDGREAFQEFFGRGHEDTIADQEANRHGRSGKDPNYYRPPGLPDKY
notes: 80-mer cyanogen bromide fragment of murine SAA2.1, residues 24-103
For B1, the “macrophage ACAT activity” value [7] is given as “no inhibitory effect on ACAT activity” and the “cholesterol esterase activities in vitro” value [8] is given as “effect was shown to reside”.
